In BigSolDB 2.1:

COc1cc(C2Oc3cc(C4Oc5cc(O)cc(O)c5C(=O)C4O)ccc3OC2CO)ccc1O (stereo not given)
Settings | solubility (mole fraction)
in PEG-400, 298.15 K | 0.24
in PEG-400, 303.15 K | 0.26
in PEG-400, 313.15 K | 0.29
in PEG-400, 323.15 K | 0.34
in PEG-400, 333.15 K | 0.38

solubility (mole fraction)
Settings | 298.15 K | 303.15 K | 313.15 K | 323.15 K | 333.15 K
in ethanol | 0.0167 | 0.0174 | 0.0193 | 0.0208 | 0.0227
in isopropanol | 0.00448 | 0.00477 | 0.00524 | 0.00593 | 0.00662
in water | 1.46e-05 | 1.68e-05 | 2.09e-05 | 2.54e-05 | 3.06e-05
